Laboratory results taken from patent US20230105212A1, “BIPHENYL DERIVATIVE INHIBITOR, PREPARATION METHOD THEREFOR AND USE THEREOF” (SHANGHAI HANSOH BIOMEDICAL CO., LTD., priority 2020, published 2023).

Experiments:
[1] = tested on: C57 mice subcutaneous xenografts tumor of MC38-hPDL1 cells; test: Tumor inhibition experiment on MC38-hPDL1 xenograft model; format: in vivo
Method: Test Embodiment 10. Tumor Inhibition Experiment on MC38-hPDL1 Xenograft Model
To evaluate the antitumor activity of the test compounds against C57 mice subcutaneous xenografts tumor of MC38-hPDL1 cells.
MC38-hPDL1 cells were taken out from the cell bank, added to DMEM medium (DMEM+10% FBS) after recovery, and placed in a CO2 incubator (incubator temperature was 37° C., CO2 concentration was 5%) to culture. MC38-hPDL1 cells were collected when the number of cells increased to the required number of inoculation in vivo. Counted with an automatic cell counter, and resuspend the cells with PBS according to the counting results to prepare a cell suspension (density was 1×10^6/mL), and placed in an ice box for use.
6-8-week-old female C57 mice weighing approximately 18-22 grams were used. Mice were housed in SPF animal room, single cage, 4-5 mice per cage. All cages, litter and water were sterilized at high temperature before use, and all animals had free access to food and water. Before the start of the experiment, C57 mice were marked with a disposable ear tag for rats and mice, and the skin of the inoculation site was disinfected with 75% alcohol before inoculation. Each mouse was subcutaneously inoculated with 0.1 mL (containing 1*10^5 cells) of MC38-hPDL1 cells on the right back. […] […] Tumor volume was measured twice a week and mice were weighed twice a week, and tumor TGI (%) was calculated.
Tumor volume (mm^3), the calculation formula was: V=0.5*D*d*d, wherein D and d were the long and short diameters of the tumor, respectively.
When the tumor regressed, TGI(%)=[1−(average tumor volume at the end of administration of a treatment group-average tumor volume at the beginning of administration of this treatment group)/average tumor volume at the beginning of administration of this treatment group]×100%.

[2] = tested on: NFAT-luc2/PD1 Jurkat cells; test: In vitro cytotoxicity on NFAT-luc2/PD1 Jurkat cells (CellTiter-Glo); format: cell-based; conditions: 72 hours
Method: (§1) Test Embodiment 5. In Vitro Cytotoxicity of the Compounds of the Present Disclosure on NFAT-Luc2/PD1 Jurkat Cells and MC38-hPDL1 Cells
(§2) Experimental purpose: To test the in vitro cytotoxicity of compounds on NFAT-luc2/PD1 Jurkat cells and MC38-hPDL1 cells.
(§3) When the cells were cultured to an appropriate degree of confluency, the cells were collected, and the cells was adjusted in an appropriate cell concentration by complete medium, then the cell suspension was plated in a 96-well plate, 90 μL per well, and put in a 37° C., 5% CO2 incubator overnight; compound solutions of different concentrations were prepared by DMSO and medium, and a vehicle control was set; compound solutions were added to a 96-well plate, 10 μL per well, and put in a 37° C., 5% CO2 incubator and cultured for 72 hours. After that, CellTiter-Glo solution was added, the mixture was shaken and mixed evenly, incubated in the dark for 10 minutes, and a BioTek Synergy H1 microplate reader was used for reading.
(§4) Luminescence signal value was used to calculate the inhibition rate, and the concentration and inhibition rate were fitted by nonlinear regression curve using Graphpad Prism software to obtain IC50 values, as shown in the following table: […]

[3] = Plasma protein binding rate (equilibrium dialysis); format: in vitro ADME; conditions: mouse plasma, equilibrium dialysis 37° C. 5 hours
Method: Test Embodiment 8. Plasma Protein Binding Rate Experiment
The purpose of this experimental method was to detect the plasma protein binding of the embodiment compounds in plasma.
The frozen plasma was thawed at room temperature or in a water bath at 37° C., then centrifuged at 3500 rpm for 5 min, and the supernatant was taken.
Preparation of compound working solution: Stock solutions were diluted with DMSO to a final concentration of 1 mM.
2.5 μL of compound working solution was added to 497.5 μL of blank plasma to a final concentration of 5 μM, shaked and mixed well.
1) The equilibrium dialysis device was prepared, and the detection membrane device was put into the equilibrium dialysis 96-well plate;
2) 200 μL of the prepared plasma solution was added to the membrane, n=2;
3) another 5 μL of plasma solution was taken, diluted 10 times with 45 μL of blank plasma of the same species, and 200 μL of acetonitrile termination solution containing internal standard was added, and stored in a −20° C. refrigerator;
4) 350 μL of dialysate (100 mM phosphate buffer) was added outside the membrane;
5) the dialysis plate was sealed and incubated in a 37° C. water bath for 5 hours;
6) after dialysis, 5 μL was taken out from the sample hole in the membrane, and diluted 10 times with 45 μL of blank plasma of the same species; 50 μL of dialysate was taken out from the sample hole outside the membrane, and 200 μL of acetonitrile termination solution containing internal standard was added;
7) the supernatant was taken after sample centrifugation;

MC38-hPDL1 cells = test: In vitro cytotoxicity on MC38-hPDL1 cells (CellTiter-Glo); format: cell-based, mouse
Method: as §1, §2, §3, §4

[4] = Pharmacokinetic test of plasma and tumor of tumor-bearing nude mice; format: in vivo; conditions: tumor-bearing nude mice, p.o. 30 mg/kg
Method: Test Embodiment 7. Pharmacokinetic Test of Plasma and Tumor of Tumor-Bearing Nude Mice
Taking tumor-bearing nude mice as the test animals, the pharmacokinetic behavior in the plasma and tumor of tumor-bearing nude mice of the following compound embodiments was studied when orally administered at a dose of 30 mg/kg.
Tumor-bearing nude mouse 21/embodiment, female, Shanghai B&K Laboratory Animal Co., Ltd., animal production license number (SCXK (Shanghai) 2013-0006 No. 311620400001794).
0.5% HPMC (1% Tween 80), dissolved by sonication, to prepare a clear solution or a homogeneous suspension.
Tumor-bearing nude mice, female; p.o. after overnight fasting, respectively, at a dose of 30 mg/kg, administered in a volume of 10 mL/kg.
Before and after administration of tumor-bearing nude mice, at 0, 1, 2, 4, 6, 8, 16 and 24 hours, 0.1 mL of blood was collected from the orbit, placed in an EDTA-K2 test tube, and centrifuged at 6000 rpm at 4° C. for 6 min to separate the plasma. After dissection, the tumor tissue was weighed and stored at −80° C.
1) Tumor tissue was homogenized with methanol and water at a ratio of 1:3, and then centrifuged to get the supernatant. 40 μL of tumor homogenate supernatant and 40 μL of plasma sample were added to 160 μL of acetonitrile for precipitation, and after mixing, centrifuged at 3500×g for 5 to 20 minutes.
2) 100 μL of the supernatant solution after treatment was taken for LC/MS/MS to analyze the concentration of the compounds to be tested.
2.7 Liquid Phase Analysis • Liquid phase condition: Shimadzu LC-20AD pump • MS conditions: AB Sciex API 4000 Mass Spectrometer • Chromatographic column: phenomenex Gemiu 5 μm C18 50×4.6 mm • Mobile phase: A solution was aqueous 0.1% formic acid solution, B solution was acetonitrile • Flow rate: 0.8 mL/min • Elution time: 0 to 4.0 minutes, the eluent was as follows:
The main parameters of pharmacokinetics were calculated with WinNonlin 8.2, and the results of the tumor-bearing nude mice pharmacokinetic experiments were shown in the following table: […]

Row | SMILES | TGI (%) Day 15 ([1]; 60 mpk po bid, n=7) [%] | Tumor volume (mm^3, Mean ± SD) Day 1 ([1]; 60 mpk po bid, n=7) [mm^3] | Tumor volume (mm^3, Mean ± SD) Day 14 ([1]; 60 mpk po bid, n=7) [mm^3] | ΔT/ΔC (%) Day 15 ([1]; 60 mpk po bid, n=7) [%] | Jurkat-PD1 inhibition rate (%) [2] [%^] | IC50 ([2]; Homo sapiens, Jurkat) [µM] | fraction unbound at 5 h, 5 μM [3] | MC38-hPDL1 inhibition rate (%) (MC38-hPDL1 cells; 72 hours) [%^] | IC50 (MC38-hPDL1 cells; Mus musculus, MC38-hPD-L1, 72 hours) [µM] | Kp ([4]; female, mouse, tumor/plasma, po, read-out: Tumor plasma ratio) | Drug concentration in plasma [4] [ng/mL] | Drug concentration in tumor [4] [ng/mL] | TGI (%) Day 15 ([1]; 10 mpk po bid, n=8) [%] | Tumor volume (mm^3, Mean ± SD) Day 1 ([1]; 10 mpk po bid, n=8) [mm^3] | Tumor volume (mm^3, Mean ± SD) Day 14 ([1]; 10 mpk po bid, n=8) [mm^3] | ΔT/ΔC (%) Day 15 ([1]; 10 mpk po bid, n=8) [%] | TGI (%) Day 15 ([1]; 30 mpk po qd, n=8) [%] | Tumor volume (mm^3, Mean ± SD) Day 1 ([1]; 30 mpk po qd, n=8) [mm^3] | Tumor volume (mm^3, Mean ± SD) Day 14 ([1]; 30 mpk po qd, n=8) [mm^3] | ΔT/ΔC (%) Day 15 ([1]; 30 mpk po qd, n=8) [%]
1 | COc1nc(-c2cccc(-c3cccc(NC(=O)c4nc5c(n4C)CCN(C)C5)c3Cl)c2Cl)ccc1CNC1COC1 [Embodiment 114, N-(2,2′-Dichloro-3′-(6-methoxy-5-((oxetan-3-ylamino)methyl)pyridin-2-yl)-[1,1′-biphenyl]-3-yl)-1,5-dimethyl-4,5,6,7-tetrahydro-1H-imidazo[4,5-c]pyridine-2-carboxamide] | 74.92 | 69.72 ± 21.92 | 140.27 ± 77.92 | 25.08 | 69.0 | 7.63 | 0.0033 | 14.0 | > 10 |  |  |  |  |  |  |  |  |  |  | 
2 | COc1nc(-c2cccc(-c3cccc(NC(=O)c4nc5c(n4C)CCN(C)C5)c3Cl)c2Cl)ccc1CN1CC2(C1)CN(C(C)=O)C2 [Embodiment 123, N-(3′-(5-((6-Acetyl-2,6-diazaspiro[3.3]heptan-2-yl)methyl)-6-methoxypyridin-2-yl)-2,2′-dichloro-[1,1′-biphenyl]-3-yl)-1,5-dimethyl-4,5,6,7-tetrahydro-1H-imidazo[4,5-c]pyridine-2-carboxamide] |  |  |  |  |  |  | 0.0095 |  |  | 2.8 | 821 | 2285 | 63.70 | 75.93 ± 26.17 | 644.86 ± 398.92 | 36.30 | 67.62 | 75.50 ± 25.70 | 582.87 ± 359.11 | 32.38
